Assay results as given in US20260138985A1, “Azepino-Indoles for the Treatment of Neurological and Psychiatric Disorders” (Terran Biosciences Inc., priority 2021, published 2026).

Assays:
[1] = Metabolic stability in human liver microsomes; format: in vitro ADME; conditions: for half-life at 0.2 μM: pH 7.4, half life; for half-life at 0.2 μM / microsomal CLint at 0.2 μM / CLint scaled at 0.2 μM: values marked * average of two experiments; for microsomal CLint at 0.2 μM: pH 7.4, intrinsic clearance, read-out: CLint(mic); for CLint scaled at 0.2 μM: pH 7.4, scaled from CLint(mic); for difference in half-life and intrinsic clearance versus comparator: Compound 163 vs 8-methoxy-1,2,3,4,5,6-hexahydroazepino[4,5-b]indole, Compounds 1, 2 and 3 vs TBG
Protocol: Microsomal Assay: Human liver microsomes (20 mg/mL) are obtained from Xenotech, LLC (Lenexa, KS). β-nicotinamide adenine dinucleotide phosphate, reduced form (NADPH), magnesium chloride (MgCl2), and dimethyl sulfoxide (DMSO) are purchased from Sigma-Aldrich.
Determination of Metabolic Stability: 7.5 mM stock solutions of test compounds of the above structural formula (e.g., of an embodiment or aspect of embodiment thereof described herein), or pharmaceutically acceptable salt thereof, are prepared in DMSO. […] The diluted microsomes are added to wells of a 96-well deep-well polypropylene plate in triplicate. […] Reactions are initiated by addition of pre-warmed NADPH solution. The final reaction volume is 0.5 mL and contains 4.0 mg/mL human liver microsomes, 0.2 μM test compound, and 2 mM NADPH in 0.1 M potassium phosphate buffer, pH 7.4, and 3 mM MgCl2. The reaction mixtures are incubated at 37° C., and […] aliquots are removed at 0, 5, 10, 20, and 30 minutes and added to shallow-well 96-well plates which contain […] of ice-cold ACN (acetonitrile) with internal standard to stop the reactions. The plates are stored at 4° C. for 20 minutes after which […] of water is added to the wells of the plate before centrifugation to pellet precipitated proteins. Supernatants are transferred to another 96-well plate and analyzed for amounts of parent remaining by LC-MS/MS using an Applied Bio-systems API 4000 mass spectrometer. The same procedure is followed for the non-deuterated counterpart of the compound and the positive control, 7-ethoxycoumarin (1 μM). Testing is done in triplicate.
Data analysis: The in vitro Ti/s for test compounds are calculated from the slopes of the linear regression of % parent remaining (In) vs incubation time relationship.
[formula] • k=−[slope of linear regression of % parent remaining (In) vs incubation time] • The apparent intrinsic clearance is calculated using the following equation: […]
Data analysis is performed using Microsoft Excel Software.

5-HT2A receptor = target: T1, 5-HT2A receptor (Homo sapiens, UniProt P28223); experiment: Calcium mobilization assay, agonist format, 5-HT2A receptor; format: cell-based; conditions: read-out: 5-HT2A agonist Efficacy @ 10 µM
T1 construct: host or cells: unnamed cell lines
T1 sequence (P28223 whole entry): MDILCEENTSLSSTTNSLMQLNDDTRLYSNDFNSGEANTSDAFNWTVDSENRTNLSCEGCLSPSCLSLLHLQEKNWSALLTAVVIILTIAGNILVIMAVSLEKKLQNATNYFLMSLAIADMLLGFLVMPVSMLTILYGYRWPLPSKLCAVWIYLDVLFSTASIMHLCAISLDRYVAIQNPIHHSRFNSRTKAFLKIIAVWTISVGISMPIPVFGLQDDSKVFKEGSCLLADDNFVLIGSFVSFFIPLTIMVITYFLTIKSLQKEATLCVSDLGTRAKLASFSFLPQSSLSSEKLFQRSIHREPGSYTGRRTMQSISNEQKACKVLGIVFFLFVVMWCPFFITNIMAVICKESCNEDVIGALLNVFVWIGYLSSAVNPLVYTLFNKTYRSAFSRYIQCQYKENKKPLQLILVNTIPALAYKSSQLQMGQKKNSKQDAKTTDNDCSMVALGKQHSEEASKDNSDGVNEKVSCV
Protocol: (§1) Protocol—in vitro testing at select 5-hydroxytryptamine (5-HT; serotonin) receptors was conducted.
(§2) • 1. Cell lines were expanded from freezer stocks according to standard procedures. • 2. Cells were seeded in a total volume of 20 μL into black-walled, clear-bottom, Poly-D-lysine coated 384-well microplates and incubated at 37° C. for the appropriate time prior to testing.
(§3) • 1. Assays were performed in 1×Dye Loading Buffer consisting of 1× Dye, 1× Additive A and 2.5 mM Probenecid in HBSS/20 mM Hepes. Probenicid was prepared fresh. • 2. Cells were loaded with dye prior to testing. Media was aspirated from cells and replaced with 20 μL Dye Loading Buffer. • 3. Cells were incubated for 30-60 minutes at 37° C.
(§4) • 1. For agonist determination, cells were incubated with sample to induce response. • 2. After dye loading, cells were removed from the incubator and 10 μL HBSS/20 mM Hepes was added. 3× vehicle was included in the buffer when performing agonist dose curves to define • the EC80 for subsequent antagonist assays. Cells were incubated for 30 minutes at room temperature in the dark to equilibrate plate temperature. • 3. Intermediate dilution of sample stocks was performed to generate 4× sample in assay buffer. • 4. Compound agonist activity was measured on a FLIPR Tetra (MDS). Calcium mobilization was monitored for 2 minutes and 10 μL 4× sample in HBSS/20 mM Hepes was added to the cells 5 seconds into the assay.
(§5) • 1. Compound activity was analyzed using CBIS data analysis suite (ChemInnovation, CA). • 2. For agonist mode assays, percentage activity is calculated using the following formula: % Activity=100%×(mean RFU of test sample−mean RFU of vehicle control)/(mean MAX RFU control ligand −mean RFU of vehicle control). • 3. For positive allosteric mode assays, percentage modulation was calculated using the following formula: % Modulation=100%×((mean RFU of test sample−mean RFU of EC20 control)/(mean RFU of MAX control ligand −mean RFU of EC20 control)). • 4. For antagonist and negative allosteric modulation mode assays, percentage inhibition is calculated using the following formula: % Inhibition=100%×(1−(mean RFU of test sample−mean RFU of vehicle control)/(mean RFU of EC80 control−mean RFU of vehicle control)).
(§6) As discussed above, agonism, or partial agonism, of the 5-HT2A receptor (also known as positive allosteric modulation, or 5-HT2A modulation) is useful for the treatment of neurological and psychiatric disorders. For example, 5-HT2A agonism has been correlated with the promotion of neural plasticity (Ly et al., 2018). Agonism of the 5-HT2B receptor has been associated with unwanted cardiac valvulopathy side-effects, a form of cardio-toxicity (Rothman et al., Circulation. 2000, 102, 2836-2841; Fitzgerald et al., Molecular Pharmacology 2000, 57, 75-81). […] Antagonists of the 5-HT2C receptor are also useful for the treatment of neurological and psychiatric disorders (Kennett et al., Neuropharmacology 1997, 36, 609-620).

5-HT2B receptor = target: T2, 5-HT2B receptor (Homo sapiens, UniProt P41595); experiment: Calcium mobilization assay, agonist format, 5-HT2B receptor; format: cell-based; conditions: read-out: 5-HT2B agonist Efficacy @ 5 µM
T2 construct: host or cells: unnamed cell lines
T2 sequence (P41595 whole entry): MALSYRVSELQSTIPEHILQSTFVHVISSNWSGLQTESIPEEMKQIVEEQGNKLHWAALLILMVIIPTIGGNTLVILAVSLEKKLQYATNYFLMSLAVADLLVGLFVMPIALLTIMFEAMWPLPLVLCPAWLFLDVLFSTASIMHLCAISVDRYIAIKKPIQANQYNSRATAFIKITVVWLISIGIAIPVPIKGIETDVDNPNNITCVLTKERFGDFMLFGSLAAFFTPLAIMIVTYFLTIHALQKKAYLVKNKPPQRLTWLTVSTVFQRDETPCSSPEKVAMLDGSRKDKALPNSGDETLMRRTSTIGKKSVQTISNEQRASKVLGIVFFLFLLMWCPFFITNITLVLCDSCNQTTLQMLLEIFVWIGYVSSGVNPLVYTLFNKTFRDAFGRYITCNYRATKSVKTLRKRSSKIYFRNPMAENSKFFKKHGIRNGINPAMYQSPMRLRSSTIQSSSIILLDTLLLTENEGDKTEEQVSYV
Protocol: as §1, §2, §3, §4, §5, §6

5-HT2C receptor = target: T3, 5-HT2C receptor (Homo sapiens, UniProt P28335); experiment: Calcium mobilization assay, antagonist format, 5-HT2C receptor; format: cell-based; parameters: dose or concentration left out as unconfirmed
T3 construct: host or cells: unnamed cell lines
T3 sequence (P28335 33-458): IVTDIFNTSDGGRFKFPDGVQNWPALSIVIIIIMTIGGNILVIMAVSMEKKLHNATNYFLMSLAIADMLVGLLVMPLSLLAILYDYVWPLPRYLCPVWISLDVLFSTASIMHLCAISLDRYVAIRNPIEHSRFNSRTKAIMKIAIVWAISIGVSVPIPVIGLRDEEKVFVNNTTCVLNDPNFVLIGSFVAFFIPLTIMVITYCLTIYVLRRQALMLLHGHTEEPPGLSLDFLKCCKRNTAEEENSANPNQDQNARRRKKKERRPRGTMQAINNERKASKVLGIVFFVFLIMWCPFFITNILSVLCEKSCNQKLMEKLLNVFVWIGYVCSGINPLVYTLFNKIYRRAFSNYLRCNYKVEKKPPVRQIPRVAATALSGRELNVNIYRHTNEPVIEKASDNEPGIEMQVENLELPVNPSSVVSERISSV
Protocol: as §1, §2, §3
• 1. For antagonist determination, cells were pre-incubated with sample followed by agonist challenge at the EC80 concentration. • 2. Intermediate dilution of sample stocks was performed to generate 3× sample in assay buffer. • 3. After dye loading, cells were removed from the incubator and […] 3× sample was added. Cells were incubated for 30 minutes at room temperature in the dark to equilibrate plate temperature. Vehicle concentration was 1%. • 4. Compound antagonist activity was measured on a FLIPR Tetra (MDS). Calcium mobilization was monitored for 2 minutes and 10 μL EC80 agonist in HBSS/20 mM Hepes was added to the cells 5 seconds into the assay.
as §5, §6

| SMILES | half-life at 0.2 μM [1] [h] | microsomal CLint at 0.2 μM [1] [µL/min/mg] | CLint scaled at 0.2 μM [1] [mL/min/kg] | activation at 10 µM (5-HT2A receptor) [%] | activation at 5 µM (5-HT2B receptor) [%] | inhibition (5-HT2C receptor) [%] | difference in half-life and intrinsic clearance versus comparator [1] | intrinsic clearance ratio ([1]; compared with 8-methoxy-1,2,3,4,5,6-hexahydroazepino[4,5-b]indole) |
| --- | --- | --- | --- | --- | --- | --- | --- | --- |
| COc1ccc2c3c([nH]c2c1)CCNCC3 [8-methoxy-1,2,3,4,5,6-hexahydroazepino[4,5-b]indole, reference compound] | 1.82 | 12.7 | 11.4 | 85.3 | 0.6 | 98.1 | – | – |
| [2H]C([2H])([2H])Oc1ccc2c3c([nH]c2c1)CCN(C)CC3 [Compound 1, 3-methyl-8-(trideuteriomethoxy)-2,4,5,6-tetrahydro-1H-azepino[4,5-b]indole] | 1.35 | 17.2 | 15.4 | 30.4 | -8.3 | 95.5 | differences in half-life and intrinsic clearance | – |
| [2H]C([2H])([2H])N1CCc2[nH]c3cc(OC)ccc3c2CC1 [Compound 2, 8-methoxy-3-(trideuteriomethyl)-2,4,5,6-tetrahydro-1H-azepino[4,5-b]indole] | 1.4 | 16.6 | 14.9 | 38 | -0.4 | 94.5 | differences in half-life and intrinsic clearance | – |
| [2H]C([2H])([2H])Oc1ccc2c3c([nH]c2c1)CCN(C([2H])([2H])[2H])CC3 [Compound 3, 8-(trideuteriomethoxy)-3-(trideuteriomethyl)-2,4,5,6-tetrahydro-1H-azepino[4,5-b]indole] | 1.38 | 16.8 | 15.1 | 40 | -0.7 | 95 | differences in half-life and intrinsic clearance | – |
| [2H]C([2H])([2H])Oc1ccc2c3c([nH]c2c1)CCNCC3 [Compound 163, 8-(trideuteriomethoxy)-1,2,3,4,5,6-hexahydroazepino[4,5-b]indole] | 1.44 | 16.1 | 14.5 | 83 | -0.2 | 97.7 | significant difference in half-life | > 1.15 |
| COc1ccc2c3c([nH]c2c1)CCN(C1CC1)CC3 [Compound 164, 3-cyclopropyl-8-methoxy-2,4,5,6-tetrahydro-1H-azepino[4,5-b]indole] | – | – | – | 61 | 2.7 | 100 | – | – |
| c1cc2c3c([nH]c2cc1OC1CC1)CCN(C1CC1)CC3 [Compound 165, 8-cyclopropoxy-3-cyclopropyl-1,2,3,4,5,6-hexahydroazepino[4,5-b]indole] | – | – | – | -2.7 | 0.9 | 71.7 | – | – |
| CN1CCc2[nH]c3cc4c(cc3c2CC1)OCC4 [Compound 166, 8-methyl-2,3,5,6,7,8,9,10-octahydroazepino[4,5-b]furo[2,3-f]indole] | – | – | – | 53.5 | 0.3 | 97.9 | – | – |
| COc1ccc2c3c([nH]c2c1)CCN(C)CC3 [TBG, 8-methoxy-3-methyl-1,2,3,4,5,6-hexahydroazepino[4,5-b]indole, reference compound] | 1.5 | 15.6 | 14 | 38.5 | -0.9 | 94.7 | – | – |
